How the values were obtained:
[1] = test system: cultured chick heart cells; assay: Effect of TPB on the Ko-dependence of Tc-MIBI influx rates; plasma membrane potential by Goldman flux equation (FIG. 6); assay type: cell-based
Experimental: FIG. 6. Effect of TPB on the Ko -dependence of Tc-MIBI influx rates. A) Preparations were preincubated in MEBSS containing the indicated Ko (K-MSA substitution for NaCl) for 1 minute in the absence (.quadrature.) and for 5 minutes in the presence ( ) of valinomycin (1 ug/ml) prior to determination of 2-min Tc-MIBI uptakes in buffer of the same composition. B) Same conditions as A with a 5-minute pre-incubation period in buffers that also contained TPB (10^-5 M) in the absence (o) or presence (·) of valinomycin. C) Resting membrane potential (Em) as a function of Ko. Em was calculated from the Tc-MIBI influx data shown in A in the presence of valinomycin using the Goldman flux equation (Restrepo, D., et al., J. Gen. Physiol. 92:489-507 (1988)): J/Jo =-x/(1-e^x) where x=Em F/RT and J/Jo is the ratio of Tc-MIBI influx rates at Em and zero membrane potential (Ko =130 mM), respectively. RT/F equals 26 mV at 37° C. The solid lines in A and B have no theoretical significance. The solid line in C represents a linear regression of the data: -Em =-67 log Ko +147mV (r=-0.99). […] Each point is the mean ±SEM of 3 determinations.
(§1) Monolayers of spontaneously contractile chick ventricular myocardial cells were obtained from disaggregated 10-day old chick embryo hearts by a slight modification of previously published methods (Horres, C. R., et al., In Pinson, A. (ed.), The Heart Cell in Culture, Boca Raton, CRC Press, pp. 77-108 (1987)). Hearts were trimmed of connective tissue and atria, finely minced and serially exposed to 0.024% (w/v) trypsin in Ca^2+ - and Mg^2+ - free Earle's salt solution for 7 minutes at 37° C. Gentle trituration and agitation on an orbital shaker bath aided disaggregation. Cells released from the first exposure were discarded and cells aspirated from the next four exposures were then added to an equal volume of trypsin deactivating solution consisting of ice-cold culture medium. Cells were centrifuged at 400 g for 10 minutes, resuspended and combined in culture medium, counted with a hemocytometer and diluted to yield a suspension of 5×10^5 cells/ml. 12 ml of suspension were incubated in 100 mm plastic culture dishes containing 7 coverslips (25 mm diameter) placed on the bottom of each dish to serve as substrate for cell growth. Cells were maintained in a humidified atmosphere of 5% CO2 /95% air for 3-4 days yielding a confluent layer of spontaneously contractile myocytes on each coverslip.
(§2) Radioactive uptake methods have been described in detail (Piwnica-Worms, D., et al, Circ. (in press). Briefly, coverslips with confluent cells were removed from culture media and pre-equilibrated for 40-60 seconds in MEBSS buffer. Uptake and retention experiments were initiated by immersion of coverslips in 60 mm glass Pyrex dishes containing loading solution consisting of buffer with 0.1-0.6 nM [^99m Tc-MIBI] (0.01-0.4 Ci/nmole; 25-100 uCi/ml). Preparations were removed at various times and rinsed three times in 25 ml volumes of ice-cold (2° C.) isotope-free buffer for 8 seconds each to clear extracellular spaces. Preparations and aliquots of the loading buffer and stock solutions were counted in a well-type sodium iodide gamma counter after which cell protein on each coverslip was extracted in 1% sodium dodecylsulfate with 10 mM sodium borate and assayed by the method of Lowry (Lowry, O. H., et al., J. Biol. Chem. 193:265-275 (1951)). Tc-MIBI binding to glass coverslips without cells was used as an estimate of non-specific adhesion to the substrate ([…] obtained with cellular preparations); this value was subtracted from total uptake determinations to derive the cell-associated counts. Use of generator equilibrium equations (Lamson, M. L., et al., i J. Nucl. Med. 16:639-641 (1975)) allowed calculation of absolute moles of Tc-MIBI in solutions and preparations. Results were therefore expressed as fmol cellular Tc-MIBI/mg protein per nM extracellular Tc-MIBI concentration. […]

[2] = test system: cultured chick heart cells; assay: Influence of TPB and CCCP on (membrane potential-independent) accumulation of Tc-MIBI (FIG. 4); assay type: cell-based; conditions: n=3-4
Experimental: FIG. 4. […] Preparations were incubated for the times indicated in 5.4 mM Ko control loading buffer containing tracer Tc-MIBI and TPB together (Δ) or in loading buffer containing Tc-MIBI alone (.quadrature.). For the latter incubation, TPB was added to the loading buffer at the arrow and cell content of Tc-MIBI subsequently determined (o). Under each condition, CCCP was added to the loading buffers as indicated by the arrows and cell content of Tc-MIBI determined ( , , ·). Each point is the mean ±SEM of 3 determinations.
as §1, §2

For `[C-]#[N+]CC(C)(C)OC.[C-]#[N+]CC(C)(C)OC.[C-]#[N+]CC(C)(C)OC.[C-]#[N+]CC(C)(C)OC.[C-]#[N+]CC(C)(C)OC.[C-]#[N+]CC(C)(C)OC.[Tc]` [Tc-MIBI, hexakis(methoxyisobutylisonitrile)technetium(I)], the “valinomycin sensitivity of Tc-MIBI influx” value ([1]; absence of TPB) was “only modestly valinomycin-sensitive”, the “valinomycin sensitivity of Tc-MIBI influx” value ([1]; presence of TPB 10^-5 M) was “highly valinomycin-sensitive” and the “Nernstian behavior of Tc-MIBI” value ([1]; presence of valinomycin) was “close to ideal Nernstian behavior”. The “correlation coefficient r, Em vs log Ko from Tc-MIBI influx” value ([1]; valinomycin 1 ug/ml, no TPB) was -0.99, the “slope of membrane potential vs log Ko from Tc-MIBI influx” value ([1]; valinomycin 1 ug/ml, no TPB, Goldman flux equation) was -67 mV/decade and the “regression -Em = -67 log Ko + 147 mV: intercept” value ([1]; valinomycin, FIG. 6C) was 147 mV. For the same compound, the “regression -Em = -67 log Ko + 147 mV: slope” value ([1]; valinomycin, FIG. 6C) was -67, the “Tc-MIBI 2 min uptake” value ([2]; +5×10^-6 M TPB, 5 seconds pre-incubation) was 20.6±0.43 fmol Tc-MIBI/mg protein per nM and the “Tc-MIBI 2 min uptake” value ([2]; +10^-7 M TPB, 5 seconds pre-incubation) was 3.37±0.57 fmol Tc-MIBI/mg protein per nM. The “Tc-MIBI 2 min uptake” value ([2]; control (no TPB)) was 1.23±0.15 fmol Tc-MIBI/mg protein per nM.

Source: patent publication US5277897A, “In vivo enhancement of cellular accumulation of lipophilic cationic organometallic compounds by reduction of intramembrane potential” (Brigham and Women's Hospital, priority 1992, dated 1994)
